{
  "source": "patent US5034520A",
  "about": "“Process for recovering heparinic oligosaccharides with an affinity for cell growth factors” (Sanofi, priority 1986, dated 1991)",
  "molecules": {"B1": {"name": "anionic FGF: anionic FGF prepared from beef brain according to Lobb and Fett (protein, UniProt P03968 16-155, looked up)", "Fibroblast growth factor 1": "FNLPLGNYKKPKLLYCSNGGYFLRILPDGTVDGTKDRSDQHIQLQLCAESIGEVYIKSTETGQFLAMDTDGLLYGSQTPNEECLFLERLEENHYNTYISKKHAEKHWFVGLKKNGRSKLGPRTHFGQKAILFLPLPVSSD"}},
  "key": {"[1]": {"system": "human endothelial cells of the umbilical vein", "assay": "Proliferation of human umbilical vein endothelial cells, with or without FGFa", "type": "cell-based", "method": "At confluence (5-7 days), the cells are detached by an EDTA-trypsin mixture.\n48 hours latter, growth factor is added again. After 4 days of culture, the cells are detached by the EDTA-trypsin mixture and the cells are counted by means of a cell counter (Coulter Counter ® Coultronics). Each experimental curve (FIG. 14A-D) represents a typical experiment conducted in triplicate. Each experiment is repeated 2 to 3 times."}, "[2]": {"system": "LE II cells (endothelial cells of mouse lung)", "assay": "Tritiated thymidine incorporation in quiescent LE II cells, with or without anionic FGF", "type": "cell-based", "method": "LE II cells (endothelial cells of mouse lung) are cultivated on plates containing 24 wells in the presence of 10% foetal calf serum until 3/4 of confluence is attained.\nThe cells are then maintained for 48 hours in only 0.2% serum and rendered quiescent.\nThe growth medium is then supplemented with either fibroblast growth factor (FGF) or the oligosaccharide fragments to be tested or both products simultaneously (FGF+product to be tested).\nThe culture is maintained for a further 24 hours and tritiated thymidine is added 4 hours before the end of the experiment.\nThe radioactivity incorporated is then counted; each measurement is made in triplicate."}},
  "data": [
    {"molecule": "FGFa: acidic FGF (FGFa)", "values": [
      {"measurement": "ED 50 of FGFa (50% of maximal proliferation)", "setting": "[1]; FGFa in the absence of oligosaccharides, 10% FCS", "result": "about 7 ng/ml"},
      {"measurement": "maximal increase of the number of cells", "setting": "[1]; FGFa without oligosaccharides, versus 10% FCS alone", "result": 230, "unit": "%"}
    ]},
    {"molecule": "B1", "values": [
      {"measurement": "dose giving plateau of stimulation", "setting": "[2]; anionic FGF alone (FIG. 10)", "result": 5, "unit": "ng/mL"},
      {"measurement": "plateau of thymidine incorporation after stimulation", "setting": "[2]; anionic FGF alone, 5 ng/ml (FIG. 10)", "result": "126,000 cpm"}
    ]}
  ]
}
